From patent US20060110456A1, “Method for biocidal and/or biostatic treatment and compositions therefor” (NATIONAL UNIVERSITY OF SINGAPORE, priority 2004, published 2006)
Entries after “also recorded” stand apart in the source; their conditions may differ. Structures can show the parent of a compound that is named as a salt.

What was measured:
[1] = tested on: Balanus amphitrite stage II naupliar larvae; details: for LD50: barnacle nauplii, 22 to 24 hours, concentration that caused 50% mortality
Procedure: Pharmaceuticals from the respective manufacturers were treated in the following way. A pill containing a known amount of active ingredient (as stated in product information) was ground in a mortar and pestle and a suspension of 2 mg ml^−1 generated in de-ionized water. This stock solution is stored at −20° C. in 4 ml amber screw cap vials. For the bioassays, 250 ul of stock solution is added to 10 ml of 1 um filtered seawater. This suspension was then sonicated for 10 minutes. Serial dilutions of this 50 μg ml^−1 seawater solution, or suspension, with seawater was done to generate the required range of concentrations.
Stage II naupliar larvae used in tests were obtained from Balanus amphitrite adults collected from inter-tidal rock walls at Kranji mangrove, Singapore. Larvae were collected from a container of adults by attraction to a point source of light and transferred to 500 ml of fresh seawater. Next, larvae were re-concentrated with a fiber optic light and added to assays.
Duplicate assays were conducted in 2 ml micro-centrifuge tubes (Axygen MCT-200-C) in 1.5 ml of filtered seawater for 22 to 24 hours. The assays were repeated for confirmation. There were four controls (vehicle only, 0 μg ml^−1), and 2 tubes of each for each test concentration. The assay was initiated by addition of barnacle nauplii in 50 to 100 μl of seawater.
After 22 to 24 hours of incubation at 25-27° C., solutions containing test animals were transferred to a Bogorov tray and scored as living or dead. Moribund larvae were scored as dead. Results were confirmed by repeating the assay. […] If data were not appropriate for probit analysis, the LC50 was estimated from graphed data.

[2] = tested on: hard fouling (barnacles, serpulids, spirorbids); assay: Field testing of coated rods; assay type: in vivo; parameters: Total hard fouling, difference in mean cover (%), drug vs control / Barnacles, difference in mean cover (%), drug vs control: tested at 25 µg/ml of coating; Serpulids, difference in mean cover (%), drug vs control: tested at 25 µg/ml of coating mix; details: for Overall performance in field assay: crude rank, best (1) to worst (8); for Barnacles, difference in mean cover (%), drug vs VC50 / Serpulids, difference in mean cover (%), drug vs VC50 / Spirorbids, difference in mean cover (%), drug vs VC50 / Total hard fouling, difference in mean cover (%), drug vs VC50: drug + VC50 rods vs VC50 control; for Barnacles, difference in mean cover (%), drug vs control / Serpulids, difference in mean cover (%), drug vs control / Spirorbids, difference in mean cover (%), drug vs control / Total hard fouling, difference in mean cover (%), drug vs control: drug + VC50 rods vs uncoated blank control; for Barnacles Mean cover (%) / Serpulids Mean cover (%) / Spirorbids Mean cover (%) / Total hard fouling Mean cover (%): rods coated with drug + VC50, field test; for Total hard fouling Mean cover (%): percentage cover within 6 mm×50 mm transect; for Total hard fouling, mean cover: 25 ug active ingredient per ml of VC50 coating
Procedure: Fouling on rods occurs more rapidly than on flat panels, enabling rapid assessment of the performance of coatings.
6 mm diameter glass rods were cut to 150 mm length and prepared prior to coating by baking in a furnace at 150° C. for 24 hours and then cooling in a dessicator.
All pharmaceuticals were obtained in commercially available form. All tablets were reduced to fine powder with a mortar and pestle, and capsules were opened to extract the contents. The amount of drug powder required to attain the desired concentrations for all tests was calculated from product dosage information and then measured by weight on a high-resolution electronic balance. This was added to the coating and mixed thoroughly prior to application to obtain the concentration of 25 ug active ingredient per ml of coating mix.
The commercial antifouling product used to benchmark field experiments was VC Offshore with Teflon® manufactured by International Coatings.
For our experiments, a reduced copper coating (“VC50”) was prepared by mixing approximately 20 g of #YBA779 into 100 ml of #YBA707. The prepared coating was then allowed to stand so that bubbles from the mixing process dissipated. 15 ml centrifuge tubes were filled with 10 mls of prepared coating. Prepared glass rods were then immersed in the coating to a height of 100 mm and then suspended on a frame to air dry until coating cured.
Five replicate rods were tested for every experimental treatment, including controls. Two sets of controls were used, an uncoated blank control and a VC50 control without pharmaceutical additives. Rod were randomly arrayed on plastic vexar mesh attached to PVC frames and suspended at a depth of 10 cm from the water surface. […] Rods were examined visually weekly for the duration of testing, which typically lasts between 6 to 10 weeks. All fouling was scored as percentage cover of each category within a 6 mm×50 mm transect on each rod.

[3] = tested on: barnacle nauplii; assay: Toxicity of drugs under different light conditions and over time (stability in seawater); assay type: in vivo, Balanus amphitrite; details: 25 ug ml^−1 seawater suspension; for Change in toxicity on ageing in seawater, 12L:12D condition: 12 h light and 12 h dark; for Change in toxicity on ageing in seawater, 12L:12D condition / Change in toxicity on ageing in seawater, dark condition: after 4 weeks; for Effect of UV on drug toxicity to barnacle nauplii: UV for half an hour
Procedure: Preliminary experiments were carried out to examine the chemical stability of the drugs. 25 ug ml^−1 seawater suspensions of the drugs were prepared, in 3 replicates per condition, 3 replicate tubes containing 15 ml per test tube per prepared for each treatment type. The treatments consisted of: • i. Dark condition: tubes were wrapped in aluminium foil and kept in the dark at all times • ii. 12L:12D condition, where the tubes were subject incubated in a plant growth chamber with light regime of 12 hours light and 12 hours dark. • iii. UV treated tubes were subject to UV for half an hour. […] Sets (1) & (2) were tested at week 0, 1, 2 and after 4 weeks. “UV” set is only assayed after UV treatment. […] Effect of UV

[4] = tested on: Bugula neritina larvae; assay: Bioassay against bryozoan larvae; assay type: in vivo; details: crude rank, best (1) to worst (8)
Procedure: Bugula neritina (Phylum Bryozoa, Class Gymnolaemata, Order Cheilostomatida) is a cosmopolitan species of bryozoan, commonly found in most marine fouling communities. The larvae are brooded in ovicells found on the stem of the colonies. When released, the larva will settle quickly on most surfaces, within a few minutes. At 24° C., the settled larvae forms the one-cell ancestrula, and after 48 hours, the lophophore has developed and extended for feeding.
Adult colonies of Bugula neritina were collected from fouling communities growing on the submerged pontoons on a floating fish farm located off Changi, Singapore. Adult animals were maintained in the open-circulation aquarium at St John's island marine laboratory, Singapore. The adults were kept in total darkness for 24 hours. On exposure to light, larvae were released after half an hour. […] Because the larvae will settle quickly, larvae were pipetted directly into test wells in 1 ml of seawater using a graduated glass pipette.
4 replicates were done for each treatment. After 24 hours, larvae were scored as settled, swimming or dead/deformed. The assay plates were usually kept for another 24 hours and checked again, to ascertain that the settled larvae had developed into viable colonies with lophophores. Two trials were repeated for each compound.
Bioassays were carried out using the method described above, in July 2003 during the peak spawning season for Bugula.

[5] = drug at 25 ug per ml of VC50 coating
[6] = drug at 25 ug per ml of VC50 coating, in words

Row | SMILES | LD50 [1] | Performance against spirorbid polychaetes ([2]; coated rods, in words) | Overall performance in field assay [2] | Barnacles, difference in mean cover (%), drug vs VC50 [2] | Serpulids, difference in mean cover (%), drug vs VC50 [2] | Spirorbids, difference in mean cover (%), drug vs VC50 [2] | Total hard fouling, difference in mean cover (%), drug vs VC50 [2] | Barnacles, difference in mean cover (%), drug vs control [2] | Serpulids, difference in mean cover (%), drug vs control [2] | Spirorbids, difference in mean cover (%), drug vs control [2] | Total hard fouling, difference in mean cover (%), drug vs control [2] | Reduction of total hard fouling cover compared to VC50 alone [2, 5] | Effect of addition of drug on antifouling performance of VC50 coating (total hard fouling) [2, 6] | Barnacles Mean cover (%) [2] | Serpulids Mean cover (%) [2] | Spirorbids Mean cover (%) [2] | Total hard fouling Mean cover (%) [2] | Change in toxicity on ageing in seawater, 12L:12D condition [3] | Effect of UV on drug toxicity to barnacle nauplii [3] | Prevention of settlement of Bugula larvae [4] | other results
1 | CN[C@H]1CC[C@@H](c2ccc(Cl)c(Cl)c2)c2ccccc21.Cl [ZLT, sertraline hydrochloride] | 1.58 ng/mL | higher cover of serpulid and spirorbid polychaetes compared to VC50 alone | 8 | −11.67% | +1.66% | +6.67% | −3.33% | −74.67% | 0% | +28.33% | −46.33% | 3.3% | did not significantly improve the antifouling performance of VC50 | 18.33% | 3.33% | 30% | 51.67% | not altered by any of the treatments applied | not altered by any of the treatments applied | 1 | Toxicity to barnacle nauplii ([1]; crude rank, best (1) to worst (8)): 1; Performance against serpulid polychaetes ([2]; coated rods, in words): higher cover of serpulid and spirorbid polychaetes compared to VC50 alone; Change in toxicity on ageing in seawater, dark condition [3]: not altered by any of the treatments applied
2 | Cc1cc2c(s1)Nc1ccccc1N=C2N1CCN(C)CC1 [ZPX, olanzapine] | 505.82 ng/mL | – | 3 | −23.3% | −1.67% | −12.66% | −37.7% | −86.3% | −3.33% | +9% | −80.7% | – | significantly improved performance against total hard fouling; also recorded: significantly improved the performance of VC50 coating | 6.67% | 0% | 10.67% | 17.3% | marked decrease in toxicity | – | 6 | Total hard fouling, mean cover ([2]; coated rods): 17.3%; Performance against barnacles ([2]; coated rods, in words): only significant for barnacles
3 | Cc1nccn1CC1CCc2c(c3ccccc3n2C)C1=O (stereo not drawn) [ZFN, ondansetron hydrochloride] | 468.96 ng/mL | exclude spirorbid settlement | 2 | −26.33% | 0% | −18.66% | −45% | -89.3% | −1.66% | +3% | −88% | – | – | 3.67% | 1.67% | 4.67% | 10% | increased in toxicity | reduction in toxicity under UV | 8 | Total hard fouling, mean cover ([2]; coated rods): 10%; Less spirorbid cover than VC50 [2, 5]: 18.7%; Reduction in barnacle cover compared to VC50 [2, 5]: 26.3%; Effect of addition of drug on antifouling performance of VC50 coating (total hard fouling) ([2]; drug at 25 ug per ml of VC50 coating, in words, hydrochloride): increased the antifouling properties of VC50 coating significantly; also recorded: significantly improved the performance of VC50 coating
4 | CN1CCN(CCCN2c3ccccc3Sc3ccc(Cl)cc32)CC1 [PCZ, prochlorperazine maleate] | 3.54 ng/mL | – | 7 | −7.67% | −1.67% | −6.66% | −16% | −70.67% | −3.33% | +15% | −58% | 16% | this reduction was not statistically significant | 22.33% | 0% | 16.67% | 39% | marked decrease in toxicity | – | 2 | Toxicity to barnacle nauplii and cyprids ([1]; in vivo): very toxic to nauplii and cyprids; Change in toxicity on ageing in seawater, dark condition [3]: appreciable decrease in toxicity
